# According to BindingDB's records for PubMed 10496952 (University of Virginia, 1999):
# “And” between values parts separate entries of the source, which are not always exact repeats. Equal entries are not always repeated.
# What was measured:
# Adenosine receptor A2b = target: T1, Adenosine receptor A2b (Homo sapiens, UniProt P29275)
# T1 sequence (P29275 whole entry): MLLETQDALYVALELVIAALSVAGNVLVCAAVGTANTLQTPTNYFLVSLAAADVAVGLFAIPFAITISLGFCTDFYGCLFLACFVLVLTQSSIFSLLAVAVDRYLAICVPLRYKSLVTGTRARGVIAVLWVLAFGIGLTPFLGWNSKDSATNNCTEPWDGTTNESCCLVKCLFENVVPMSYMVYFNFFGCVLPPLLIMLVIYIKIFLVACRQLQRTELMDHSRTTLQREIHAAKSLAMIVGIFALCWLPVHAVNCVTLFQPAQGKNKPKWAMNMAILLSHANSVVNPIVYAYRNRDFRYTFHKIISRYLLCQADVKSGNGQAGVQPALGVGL
# Adenosine receptor A1 = target: T2, Adenosine receptor A1 (Homo sapiens, UniProt P30542)
# T2 sequence (P30542 whole entry): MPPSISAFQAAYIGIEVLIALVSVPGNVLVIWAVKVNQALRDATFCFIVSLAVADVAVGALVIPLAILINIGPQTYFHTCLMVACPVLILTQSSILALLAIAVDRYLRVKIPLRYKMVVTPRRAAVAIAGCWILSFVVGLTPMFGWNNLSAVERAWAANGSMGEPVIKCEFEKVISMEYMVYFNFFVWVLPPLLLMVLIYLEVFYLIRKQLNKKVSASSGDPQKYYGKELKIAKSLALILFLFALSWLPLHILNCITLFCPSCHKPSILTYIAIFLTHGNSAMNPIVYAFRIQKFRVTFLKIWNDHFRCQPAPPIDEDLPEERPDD
# Adenosine receptor A2a = Adenosine receptor A2a (Homo sapiens, UniProt P29274)
# Sequence of Adenosine receptor A2a (P29274 whole entry): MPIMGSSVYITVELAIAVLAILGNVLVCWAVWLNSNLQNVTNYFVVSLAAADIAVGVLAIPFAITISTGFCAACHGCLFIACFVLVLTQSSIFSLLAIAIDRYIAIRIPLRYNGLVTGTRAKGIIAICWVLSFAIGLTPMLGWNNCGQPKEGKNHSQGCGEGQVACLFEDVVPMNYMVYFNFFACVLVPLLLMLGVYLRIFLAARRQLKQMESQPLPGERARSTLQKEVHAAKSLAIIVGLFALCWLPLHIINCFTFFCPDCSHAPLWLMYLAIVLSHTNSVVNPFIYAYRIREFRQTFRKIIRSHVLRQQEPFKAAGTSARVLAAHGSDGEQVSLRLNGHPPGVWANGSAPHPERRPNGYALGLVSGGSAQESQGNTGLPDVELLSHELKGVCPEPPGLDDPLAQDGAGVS
# Adenosine receptor A3 = target: T3, Adenosine receptor A3 (Homo sapiens, UniProt P0DMS8)
# T3 sequence (P0DMS8 whole entry): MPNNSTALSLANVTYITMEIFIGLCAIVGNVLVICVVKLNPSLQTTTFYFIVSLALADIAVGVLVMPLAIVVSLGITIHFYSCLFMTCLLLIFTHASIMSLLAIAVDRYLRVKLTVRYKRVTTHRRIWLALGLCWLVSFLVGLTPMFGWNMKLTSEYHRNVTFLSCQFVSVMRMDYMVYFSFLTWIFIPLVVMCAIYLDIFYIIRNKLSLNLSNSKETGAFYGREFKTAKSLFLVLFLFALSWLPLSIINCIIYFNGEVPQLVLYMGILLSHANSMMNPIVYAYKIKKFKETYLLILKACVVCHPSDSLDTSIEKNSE
Ki (Adenosine receptor A2b),Structure (SMILES),other results
> 10000 nM,Nc1ccc(CCNc2nc(N)c3ncn(C4OC(CO)C(O)C4O)c3n2)cc1I (stereo unspecified) [CAS_190964],
> 10000 nM,Nc1nc(Cl)nc2c1ncn2[C@@H]1O[C@H](CO)[C@H](O)C1O (stereo partly specified) [2-Chloroadenosine],
12.3 nM,"CCn1c(=O)c2[nH]c(-c3ccccc3)nc2n(CC)c1=O [1,3-Diethyl-8-phenyl-3,7-dihydro-purine-2,6-dione]",
51.6 nM,CCCn1c(=O)c2[nH]c(-c3ccc(C=CC(=O)O)cc3)nc2n(CCC)c1=O [NSC_129447],
40 nM and 30 nM,CCCn1c(=O)c2nc(-c3ccc(OCC(=O)O)cc3)[nH]c2n(Cc2ccc(N)c(I)c2)c1=O [NSC_163889],Ki (Adenosine receptor A1): 70 nM; Ki (Adenosine receptor A2a): 95 nM; Ki (Adenosine receptor A3): 15 nM
> 10000 nM,CCNC(=O)C(=O)Nc1nc(Nc2ccccc2)c2ncn([C@@H]3O[C@H](CO)[C@@H](O)[C@H]3O)c2n1 [AB-NECA],
,CCCn1c(=O)c2nc[nH]c2n(CCC)c1=O,Ki (Adenosine receptor A3): 509 nM
,CCCn1c(=O)[nH]c(=O)c2[nH]cnc21 [3-Propylxanthine (enprofylline)],Ki (Adenosine receptor A1): > 10000 nM
